Data published in patent US20230365582A1, “NOVEL COMPOUNDS HAVING INHIBITORY ACTIVITY ON PROSTAGLANDIN E2 RECEPTOR AND USES THEREOF” (KANAPH THERAPEUTICS INC., priority 2020, published 2023).

Key:
hEP4 = biological target: T1, hEP4 (Homo sapiens, UniProt P35408); test: hEP4 cAMP assay; format: cell-based; conditions: HEK293 cells overexpressing hEP4; PGE2 agonist 20 nM; graded per Table 21; read-out: IC50 (nM) EP4 cAMP
T1 construct: expressed in transfected cells; host or cells: HEK293
Procedure, shortened: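 HEK293 cells overexpressing hEP4, starved 4 h, were treated with compound (10 μM-0.001 nM) plus 20 nM PGE2 (EC50-80) in HBSS buffer with 0.5 mM IBMX for 18.5 min at room temperature. cAMP was read by TR-FRET (665/615 nm) as % of DMSO control; IC50 from 4-parameter fit, median of multiple experiments.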

hEP2 = biological target: T2, hEP2 (Homo sapiens, UniProt P43116); test: hEP2 cAMP assay; format: cell-based; conditions: HEK293 cells overexpressing hEP2; PGE2 agonist 400 pM; graded per Table 21; read-out: IC50 (nM) EP2 cAMP
T2 construct: expressed in transfected cells; host or cells: HEK293
Procedure, shortened: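 HEK293 cells overexpressing hEP2, serum-starved 4 h, then 1,000 cells/well treated with compound (10 μM–0.001 nM) plus 400 pM PGE2 (about EC50-80) in HBSS buffer with 0.5 mM IBMX for 12 min at room temperature. cAMP measured by TR-FRET (665/615 nm) as % of DMSO control; IC50 from 4-parameter fit, median of repeats.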

T2 sequence (P43116 whole entry): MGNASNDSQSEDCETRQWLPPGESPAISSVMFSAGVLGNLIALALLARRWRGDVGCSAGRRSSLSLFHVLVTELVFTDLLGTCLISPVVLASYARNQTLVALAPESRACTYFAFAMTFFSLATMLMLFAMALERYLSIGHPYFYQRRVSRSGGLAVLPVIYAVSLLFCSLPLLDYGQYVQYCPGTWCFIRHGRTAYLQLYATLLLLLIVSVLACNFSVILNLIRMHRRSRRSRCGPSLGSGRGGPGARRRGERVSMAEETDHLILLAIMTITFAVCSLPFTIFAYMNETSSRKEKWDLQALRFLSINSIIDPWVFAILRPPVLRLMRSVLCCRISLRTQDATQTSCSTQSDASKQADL
T1 sequence (P35408 whole entry): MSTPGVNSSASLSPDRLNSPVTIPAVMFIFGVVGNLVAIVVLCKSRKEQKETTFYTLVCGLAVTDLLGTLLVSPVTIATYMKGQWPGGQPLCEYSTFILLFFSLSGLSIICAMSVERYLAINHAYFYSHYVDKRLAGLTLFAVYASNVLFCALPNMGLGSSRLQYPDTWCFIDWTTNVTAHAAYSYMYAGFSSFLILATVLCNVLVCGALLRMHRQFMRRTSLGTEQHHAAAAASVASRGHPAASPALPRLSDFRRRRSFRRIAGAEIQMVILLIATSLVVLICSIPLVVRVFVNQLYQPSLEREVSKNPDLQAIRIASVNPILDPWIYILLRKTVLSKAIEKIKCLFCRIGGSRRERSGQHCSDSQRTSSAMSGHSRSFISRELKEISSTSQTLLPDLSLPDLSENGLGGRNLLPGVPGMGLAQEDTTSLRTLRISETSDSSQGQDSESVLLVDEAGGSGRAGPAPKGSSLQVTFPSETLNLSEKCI

Structure (SMILES)	IC50 (hEP4) [nM]	IC50 (hEP2) [nM]
COc1cc(OC)cc(-c2ccc(Cn3ccc4scc(C(=O)NC5CC6(C5)CC(C(=O)O)C6)c43)cc2)c1 (centres unmarked) [Example 89, 6-(4-((3′,5′-dimethoxy-[1,1′-biphenyl]-4-yl)methyl)-4H-thieno[3,2-b]pyrrole-3-carboxamido)spiro[3.3]heptane-2-carboxylic acid]	< 500	< 500
O=C(NC1CC2(C1)CC(C(=O)O)C2)c1csc2ccn(Cc3ccc(C(F)(F)F)cc3)c12 (centres unmarked) [Example 90, 6-(4-(4-(trifluoromethyl)benzyl)-4H-thieno[3,2-b]pyrrole-3-carboxamido)spiro[3.3]heptane-2-carboxylic acid]	500 to 5000	500 to 5000
O=C(NC1CC2(C1)CC(C(=O)O)C2)c1csc2ccn(CCc3ccc(-c4ccccc4)cc3)c12 (centres unmarked) [Example 91, 6-(4-(2-([1,1′-biphenyl]-4-yl)ethyl)-4H-thieno[3,2-b]pyrrole-3-carboxamido)spiro[3.3]heptane-2-carboxylic acid]	> 10000	> 10000
O=C(NC1CC2(C1)CC(C(=O)O)C2)c1csc2ccn(Cc3ccc(-c4cccc(F)c4)cc3)c12 (centres unmarked) [Example 92, 6-(4-((3′-fluoro-[1,1′-biphenyl]-4-yl)methyl)-4H-thieno[3,2-b]pyrrole-3-carboxamido)spiro[3.3]heptane-2-carboxylic acid]	< 500	< 500
O=C(NC1CC2(C1)CC(C(=O)O)C2)c1csc2ccn(Cc3ccc(-c4ncccn4)cc3)c12 (centres unmarked) [Example 93, 6-(4-(4-(pyrimidin-2-yl)benzyl)-4H-thieno[3,2-b]pyrrole-3-carboxamido)spiro[3.3]heptane-2-carboxylic acid]	500 to 5000	5000 to 10000
O=C(NC1CC2(C1)CC(C(=O)O)C2)c1csc2ccn(Cc3cnc(-c4ccccc4)nc3)c12 (centres unmarked) [Example 94, 6-(4-((2-phenylpyrimidin-5-yl)methyl)-4H-thieno[3,2-b]pyrrole-3-carboxamido)spiro[3.3]heptane-2-carboxylic acid]	< 500	500 to 5000
COc1cc(F)cc(-c2ccc(Cn3ccc4sc(C)c(C(=O)NC5CC6(C5)CC(C(=O)O)C6)c43)cc2)c1 (centres unmarked) [Example 95]	< 500	500 to 5000
Cc1sc2ccn(CC#Cc3ccccc3)c2c1C(=O)NC1CC2(C1)CC(C(=O)O)C2 (centres unmarked) [Example 96, 6-(2-methyl-4-(3-phenylprop-2-yn-1-yl)-4H-thieno[3,2-b]pyrrole-3-carboxamido)spiro[3.3]heptane-2-carboxylic acid]	500 to 5000	> 10000
COc1cc(F)cc(-c2ccc(Cn3ccc4scc(C(=O)NC5CC6(C5)CC(C(=O)O)C6)c43)cc2)c1 (centres unmarked) [Example 97, 6-4-((3′-fluoro-5′-methoxy[1,1′-biphenyl-4-yl)methyl)-4H-thieno[3,2-b]pyrrole-3-carboxamido)spiro[3.3]heptane-2-carboxylic acid]	< 500	< 500
O=C(NC1CC2(C1)CC(C(=O)O)C2)c1csc2ccn(CC#Cc3ccccc3)c12 (centres unmarked) [Example 98, 6-(2-4-(3-phenylprop-2-yn-1-yl)-4H-thieno[3,2-b]pyrrole-3-carboxamido)spiro[3.3]heptane-2-carboxylic acid]	500 to 5000	> 10000
O=C(NC1CC2(C1)CC(C(=O)O)C2)c1csc2ccn(Cc3ccc(-c4cccnc4)cc3)c12 (centres unmarked) [Example 99, 6-(4-(4-(pyridin-3-yl)benzyl)-4H-thieno[3,2-b]pyrrole-3-carboxamido)spiro[3.3]heptane-2-carboxylic acid]	< 500	> 10000
O=C(NC1CC2(C1)CC(C(=O)O)C2)c1csc2ccn(Cc3ccc(-c4cncc(F)c4)cc3)c12 (centres unmarked) [Example 100, 6-(4-(4-(5-fluoropyridin-3-yl)benzyl)-4H-thieno[3,2-b]pyrrole-3-carboxamido)spiro[3.3]heptane-2-carboxylic acid]	< 500	500 to 5000
COc1cncc(-c2ccc(Cn3ccc4scc(C(=O)NC5CC6(C5)CC(C(=O)O)C6)c43)cc2)c1 (centres unmarked) [Example 101, 6-(4-(4-(5-methoxypyridin-3-yl)benzyl)-4H-thieno[3,2-b]pyrrole-3-carboxamido)spiro[3.3]heptane-2-carboxylic acid]	< 500	500 to 5000
Cn1cc(-c2ccc(Cn3ccc4scc(C(=O)NC5CC6(C5)CC(C(=O)O)C6)c43)cc2)cn1 (centres unmarked) [Example 102, 6-(4-(4-(1-methyl-1H-pyrazol-4-yl)benzyl)-4H-thieno[3,2-b]pyrrole-3-carboxamido)spiro[3.3]heptane-2-carboxylic acid]	< 500	> 10000
O=C(NC1CC2(C1)CC(C(=O)O)C2)c1csc2ccn(Cc3ccc4c(ccn4Cc4ccccc4)c3)c12 (centres unmarked) [Example 103, 6-(4-((1-benzyl-IH-indol-5-yl)methyl)-4H-thieno[3,2-b]pyrrole-3-carboxamido)spiro[3.3]heptane-2-carboxylic acid]	< 500	> 10000
O=C(NC1CC2(C1)CC(C(=O)O)C2)c1csc2ccn(Cc3ccc(-c4ccccn4)cc3)c12 (centres unmarked) [Example 104, 6-(4-(4-(pyridin-2-yl)benzyl)-4H-thieno[3,2-b]pyrrole-3-carboxamido)spiro[3.3]heptane-2-carboxylic acid]	< 500	5000 to 10000
O=C(NC1CC2(C1)CC(C(=O)O)C2)c1csc2ccn(Cc3ccc(-c4ccccc4)nc3)c12 (centres unmarked) [Example 105, 6-(4-((6-phenylpyridin-3-yl)methyl)-4H-thieno[3,2-b]pyrrole-3-carboxamido)spiro[3.3]heptane-2-carboxylic acid]	< 500	500 to 5000
O=C(NC1CC2(C1)CC(C(=O)O)C2)c1csc2ccn(Cc3ccc(-c4ccncc4)cc3)c12 (centres unmarked) [Example 106, 6-(4-(4-(pyridin-4-yl)benzyl)-4H-thieno[3,2-b]pyrrole-3-carboxamido)spiro[3.3]heptane-2-carboxylic acid]	< 500	5000 to 10000
O=C(NC1CC2(C1)CC(C(=O)O)C2)c1csc2ccn(Cc3ccc(-n4cccn4)cc3)c12 (centres unmarked) [Example 107, 6-(4-(4-(1H-pyrazol-1-yl)benzyl)-4H-thieno[3,2-b]pyrrole-3-carboxamido)spiro[3.3]heptane-2-carboxylic acid]	500 to 5000	> 10000
COc1cccc(-c2ccc(Cn3ccc4scc(C(=O)NC5CC6(C5)CC(C(=O)O)C6)c43)cc2)n1 (centres unmarked) [Example 108, 6-(4-(4-(6-methoxypyridin-2-yl)benzyl)-4H-thieno[3,2-b]pyrrole-3-carboxamido)spiro[3.3]heptane-2-carboxylic acid]	< 500	500 to 5000
COc1ccnc(-c2ccc(Cn3ccc4scc(C(=O)NC5CC6(C5)CC(C(=O)O)C6)c43)cc2)c1 (centres unmarked) [Example 109, 6-(4-(4-(4-methoxypyridin-2-yl)benzyl)-4H-thieno[3,2-b]pyrrole-3-carboxamido)spiro[3.3]heptane-2-carboxylic acid]	< 500	500 to 5000
COc1cc(F)cc(-c2ccc(Cn3ccc4scc(C(=O)NC5CC6(C5)CC(C(=O)O)C6)c43)cn2)c1 (centres unmarked) [Example 110, 6-(4-((6-(3-fluoro-5-methoxyphenyl)pyridin-3-yl)methyl)-4H-thieno[3,2-b]pyrrole-3-carboxamido)spiro[3.3]heptane-2-carboxylic acid]	< 500	< 500
Cc1cnn(-c2ccc(Cn3ccc4scc(C(=O)NC5CC6(C5)CC(C(=O)O)C6)c43)cc2)c1 (centres unmarked) [Example 111, 6-(4-(4-(4-methyl-1H-pyrazol-1-yl)benzyl)-4H-thieno[3,2-b]pyrrole-3-carboxamido)spiro[3.3]heptane-2-carboxylic acid]	< 500	> 10000
Cc1cc(C(F)(F)F)n(-c2ccc(Cn3ccc4scc(C(=O)NC5CC6(C5)CC(C(=O)O)C6)c43)cc2)n1 (centres unmarked) [Example 112, 6-(4-(4-(3-methyl-5-(trifluoromethyl)-IH-pyrazol-1-yl)benzyl)-4H-thieno[3,2-b]pyrrole-3-carboxamido)spiro[3.3]heptane-2-carboxylic acid]	500 to 5000	> 10000
COc1cc(F)cc(-c2ccc(Cn3ccc4scc(C(=O)NC5CC6(C5)CC(C(=O)O)C6)c43)nc2)c1 (centres unmarked) [Example 113, 6-(4-((5-(3-fluoro-5-methoxyphenyl)pyridin-2-yl)methyl)-4H-thieno[3,2-b]pyrrole-3-carboxamido)spiro[3.3]heptane-2-carboxylic acid]	< 500	500 to 5000
